The test system of assay [1] is H-bc-derived tumor xenografts. As to the kind of experiment: H-bc-derived tumor xenografts in nude mice, tumor weight day 25. In kind it is in vivo, BALB/c male nude mice. To be noted: H-bc tumors, Pa 45 ug/mouse intraperitoneal once in 2 days. From the text: (§1) Animal experiments were undertaken in accordance with the National Institutes of Health Guide for the Care and Use of Laboratory Animals. BALB/c male nude mice aged of 8-12 weeks were used for this study. 5637 or H-bc cells were embedded in BD Matrigel Matrix (Becton, Dickinson, Franklin Lakes, N.J., USA) and subcutaneously injected into the four sites at the back of mice as following: 1.7×10^7 cells/site for 5637, 0.7×10^7 cells/site for H-bc, 4 sites/mouse, 6 mice for 5637, 6 mice for H-bc, respectively. From the fourth day after cell injection, all 5637-generated tumors were intratumorally injected with 2 nM miR-193a-3p agomiR or miR-193a-5p agomiR, while H-bc-generated tumors were injected with 4 nM miR-193a-3p/-5p/Mock antagomiR/PBS in a similar manner. From the sixth day after cell injection, three mice from 5637 and three from H-bc intraperitoneally received Pa (45 ug/mouse) once in 2 days. The remaining six mice (three from 5637 and three from H-bc) received PBS as a mock treatment control. Mice were humanely killed on day 25, and the tumors were weighed and photographed. The tumor weight was described as the mean±S.D.
(§2) Animal experiments were undertaken in accordance with the National Institutes of Health Guide for the Care and Use of Laboratory Animals. BALB/c male nude mice of 8-12 weeks of age were used for this study. […]

The test system of assay [2] is 5637 cell-derived tumor xenograft. The assay is described as follows: 5637-derived tumor xenografts in nude mice, tumor weight day 25. To be noted: 5637 tumors, Pa 45 ug/mouse intraperitoneal once in 2 days. In kind it is in vivo, BALB/c male nude mice.
Text: as §1, §2

Take `CC(=O)O[C@H]1C(=O)[C@@]2(C)[C@H]([C@H](OC(=O)c3ccccc3)[C@]3(O)C[C@H](OC(=O)[C@H](O)[C@@H](NC(=O)c4ccccc4)c4ccccc4)C(C)=C1C3(C)C)[C@]1(OC(C)=O)CO[C@@H]1C[C@@H]2O` [Pacilitaxol, Paclitaxel]: the “tumor weight ratio of the Pa treated over PBS treated” value was found to be 0.40 in assay [1] and 0.283 in assay [2].
